We go through 1 compound from patent US20030065039A1, “Biologically active 1,3-bis-aromatic-prop-2-en-1-ones, 1,3-bis-aromatic-propan-1-ones, and 1,3-bis-aromatic-prop-2-yn-1-ones” (Statens Serum Institute, priority 1997, published 2003).

Type in all cases: cell-based
Experiment [1] has as its system Leishmania promastigotes. The experiment is described as follows: Leishmania promastigotes Assay. As to conditions: Leishmania; promastigotes, 3H-thymidine uptake; read-out: Leishmania IC50 ± SD. The method in brief:
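L. major (WHO Iran vaccine strain) and L. donovani MHOM/KE/85/NLB 274 promastigotes (3×10^6/ml, day 3 and 6 cultures) exposed to compound 2 h at 26 °C, then 3H-thymidine 18 h; incorporation counted by scintillation. Microscopic counts and flagellar motility also assessed.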

For experiment [2], the system named is TNF-α. The experiment in a line: TNF-α production by human peripheral blood mononuclear cells, culture supernatant (ELISA). Particulars: Homo sapiens, PBMC, read-out: percentage inhibition of TNF-α production; for inhibition at 1 µg/mL: drug 1 μg/ml; for inhibition at 5 µg/mL: drug 5 μg/ml; for inhibition at 10 µg/mL: drug 10 μg/ml; for inhibition at 20 µg/mL: drug 20 μg/ml; for inhibition at 1.25 µg/mL: drug 1.25 μg/ml; for inhibition at 6.25 µg/mL: drug 6.25 μg/ml; for inhibition at 12.5 µg/mL: drug 12.5 μg/ml. The procedure:
Cells: Peripheral blood mononuclear cells obtained from healthy individuals. The cells were separated by a conventional method lymphoprep) and suspended in RMPI 1640 containing 5% human serum.
Stimulation of cytokine-release from human mononuclear cells: Human peripheral blood mononuclear cells from Danish donors were suspended in 1-10% (v/v) human serum in RPMI 1640 and adjusted to 2×10^6 cells per ml. 0.1 ml volumes were then dispensed into wells of 96-well microtiter plates. […] In some experiments cells were preincubated with drugs for 2 hrs before addition of stimulation antigens. The cultures were incubated overnight for TNF-α and IL-6 assays.
Supernatants were collected and assayed for TNF-α, IL-1α and IL-6 by ELISA procedures (Jakobsen et al., 1993, Fomsgaard et al., 1988, Hansen et al., 1991) with the following modifications. ELISA Maxisorp plates (Nunc, Roskilde, Denmark) were coated for 24 hrs at 4 C with 100 μl per well of 2.5 μg/ml rabbit polyclonal IgG to human recombinant TNF, IL-1α or IL-6 in 100 mM sodiumhydrogencarbonate. Non-attached sites were blocked for 1 h by 200 μl per well of 2% human serum slbumin in PBS (1 h at 37° C.), and the wells were washed 4 times in 2.5% NaCl, 0.1% Tween 20 (Merck, Darmstadt, Germany). This washing procedure was done after each of the following incubating steps:
1) 100 μl culture supernatants made to 50% (v/v) in incubation buffer (4% (v/v) normal rabbit serum, DAKO code X902), 1% polyethylene glycol (MW 6,000), 2.5% NaCl, 0.1% Tween 20 in phosphate buffered saline (PBS) were incubated 2 hrs at 37° C., dilutions of native as well as recombinant cytokine standards in the same incubation buffer were asssayed in parallel with the tested supernatants,
2) 100 μl per well of biotinilated rabbit antibodies to recombinant TNF-α, IL-1α or IL-6 (1.5 μg/ml in 0.5% human serum albumin, 0.1% Tween 20 in PBS) were added at 37° for 2 hrs,
3) […] per well of a 1:1000 dilution of streptavidin-peroxidase (Amersham, UK), at room temperature for 30 min.
Enzyme activities were quantitated after addition of 100 μl per well of 0.67 mg/ml 1,2-phenyldiamine hydrochloride (DAKO) dissolved in 100 mM citric acid-phosphate buffer, pH 5.0 containing 0.015% (v/v) H2O2. The reactions were stopped by adding 50 μl per well of 2.5 M H2SO4, and the optical densities are measured in an ELISA scanner at 490 nm against a test reference at 620 nm.
Assay: The compounds were prepared as stock solution at a concentration of 1 mg/ml in medium containing 10% DMSO. The dilutions were made in medium. The cells were stimulated with either SPAG (a malaria antigen TNF-inducer) or bacterial LPS. The supernatant of cell cultures were assayed for TNF-α using a commercial ELISA kit.
(An ELISA detects its analyte on a solid surface through an enzyme-linked reagent.)

Experiment [3] relates to human lymphocytes. The experiment in a line: Lymphocyte Proliferation Assay. As to conditions: Lymphocyte; PHA provoked proliferation of human lymphocytes; read-out: Lymphocytes IC50 ± SD. The method in brief:
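Ficoll-isolated human blood mononuclear cells (0.63×10^5/ml) in RPMI 1640 with 5% FCS were cultured in triplicate with test compound and PHA or PPD for 3 or 7 days. Proliferation measured by ^3H-thymidine incorporation over the final 24 h; triplicate median recorded.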

The structures appear in SMILES notation. Read-outs that look alike come from different tables or passages of the source.

By IC50 is commonly meant the concentration that gives 50% inhibition. One may read the inhibition as the percentage by which the read-out fell short of the control. Regarding `C=CCOc1ccc(C(=O)/C=C/c2cc(OC)cc(OC)c2)cc1` [SBC-35ma, 3,5-dimethoxy-4′-allyloxychalcone], the values for the IC50 in experiment [1] and in experiment [3] were 27 ± 2 µM and 25 ± 2 µM, respectively. For the same compound, the inhibition at 1 µg/mL amounted to 0% in experiment [2] (Table 1, LPS 1:1000) and 0% in experiment [2] (Table 1, SPAG 1:12.5). For the same compound, the inhibition at 5 µg/mL in experiment [2] (Table 1, LPS 1:1000) amounted to 1%; in experiment [2] (Table 1, SPAG 1:12.5), 0%. Also, the inhibition at 10 µg/mL in experiment [2] (Table 1, LPS 1:1000) was determined as 56%; in experiment [2] (Table 1, SPAG 1:12.5), 55%. The inhibition at 20 µg/mL was found to be 73% in experiment [2] (Table 1, LPS 1:1000, preincubated 2 hrs); 100% in experiment [2] (Table 1, SPAG 1:12.5, preincubated 2 hrs); 33% in experiment [2] (Table 2, LPS 1:1000, preincubated 2 hours); 100% in experiment [2] (Table 2, SPAG 1:12.5, preincubated 2 hours). Besides, the inhibition at 1.25 µg/mL in experiment [2] (Table 2, LPS 1:1000) was 2%; in experiment [2] (Table 2, SPAG 1:12.5), 87%. The inhibition at 6.25 µg/mL in experiment [2] (Table 2, LPS 1:1000) was found to be 23%; in experiment [2] (Table 2, SPAG 1:12.5) it was 99%. The inhibition at 12.5 µg/mL was 28% in experiment [2] (Table 2, LPS 1:1000) and 100% in experiment [2] (Table 2, SPAG 1:12.5).
